Patent US5614504A, “Method of making inosine monophosphate derivatives and immunopotentiating uses thereof” (The University of South Florida, priority 1995, dated 1997)

Legend:
in vitro = in vitro ADME, Crotalus atrox; conditions: rattlesnake, pH 7.3; 0.02 units 5'-nucleotidase, 37° C., 10 minutes; four experiments; read-out: Hydrolysis (%)
Method: (§1) Nucleotide samples (40-60 nmoles) were incubated at 37° C. for 10 minutes with 0.02 units 5'-nucleotidase in a total volume of 100 μl containing […] HEPES, pH 7.3 and […] MgCl2. […] Phosphate was determined by the absorbance of 820 nm. Blanks consisting of nucleotide but no enzyme were tested in parallel to correct for non-enzymatic hydrolysis.

influenza virus = type: in vivo, NMRI mice; conditions: Squalane alone
[1] = system: human peripheral blood lymphocytes (HPBL); test: Response of normal HPBL to PHA (tritiated thymidine incorporation); type: cell-based; conditions: 0.1-100 μg/ml; FIG. 1
Method: (§2) In vitro: Both human peripheral blood lymphocytes (HPBL) and mouse spleen lymphocytes (MSL) were employed. […] For HPBL transformation, PHA and PWM were used at 0.5 μg/ml. For MSL transformation, Con A was used at 0.5 μg/ml, phytohemagglutinin (PHA, Murex Diagnostics, Atlanta, Ga.) at 0.5 μg/ml and lipopolysaccharide endotoxin (LPS, Sigma, St. Louis, Mo.) at 10 μg/ml.
(§3) They were cultured in microwell plates at 1.5×10^6 cells/ml of minimal essential media (MEM, Gibco Labs, Grand Island, N.Y.) with 5% fetal calf serum (FCS, Hyclone Labs, Logan, Utah) and tested for their proliferative response to mitogens as measured by incorporation of (^3 H) tritiated thymidine (New England Nuclear, Wilmington Del., […]; 2.5 μCi/ml) during a terminal pulse followed by liquid scintillation spectrometry.

[2] = system: mouse spleen lymphocytes (MSL); test: Mouse spleen lymphocyte proliferation to Con A; type: cell-based; conditions: 0.1, 1, 10, 100 μg/ml; Con A 0.5 μg/ml
Method: as §2, §3

[3] = system: 5'-nucleotidase (from Crotalus atrox venom); test: in vitro; type: in vitro ADME; conditions: in words
Method: as §1

[4] = system: spleen plaque antibody forming cells (PFC); test: In vivo stimulation of PFC response to SRBC; parameters: species or system mice; conditions: for effect on PFC response: 50 mg/kg of body weight ip with SRBC, PFC five days later; for dose of optimal stimulation of PFC response: intraperitoneal
Method: Five days later, suspensions of spleen cells were prepared and their viability was determined by trypan blue exclusion test. Cells were suspended at 3×10^6 /ml. 0.2 ml of spleen cell suspension was mixed with 0.8 ml of 0.7% agarose and 0.2 ml of freshly washed SRBC (at 6×10^5 /ml). The mixture was immediately poured into the plate and allowed to solidify. After 60 minutes of incubation at 37° C. in a humid atmosphere of 5% CO2 in the air, the plate was flooded with 1 ml of guinea-pig complement diluted 1:5 with Hank's balanced saline. Hemolytic plaques were counted with an inverted scope using 4× magnification.
Spleen plaque antibody forming cells (PFC) were measured at the end of the five days.

[5] = in man; cited from earlier work

| Compound | metabolised at 10 min (in vitro) [%] | effect on survival after influenza challenge (influenza virus) | relative activity on HPBL response to PHA [1] | proliferative responses of MSL to Con A [2] | resistance to hydrolysis by 5'-nucleotidase [3] | effect on PFC response [4] | dose of optimal stimulation of PFC response [4] | half-life [5] |
| --- | --- | --- | --- | --- | --- | --- | --- | --- |
| Nc1ncnc2c1ncn2[C@@H]1O[C@H](COP(=O)(O)O)[C@@H](O)[C@H]1O [Adenosine MP, adenosine-5'-monophosphate, reference compound] | 86 |  |  |  |  |  |  |  |
| CC(C)CCCC(C)CCCC(C)CCCCC(C)CCCC(C)CCCC(C)C (stereo not shown) [Squalane, reference compound] |  | no effect |  |  |  |  |  |  |
| CCOP(=O)(O)OC[C@H]1O[C@@H](n2cnc3c(=O)[nH]cnc32)[C@H](O)[C@@H]1O [E-IMP, Ethyl-5'-inosine-monophosphate] | 2.9 |  | more active | stimulated the proliferative responses | extremely resistant |  |  |  |
| CC(CCCC(C)(C)O)NP(=O)(O)OC[C@H]1O[C@@H](n2cnc3c(=O)[nH]cnc32)[C@H](O)[C@@H]1O (stereo partly shown) [Ha-IMP, (Heptamin-1-ol)-5'-inosine-monophosphate] | 76 |  | low | stimulated the proliferative responses | mild | significantly stimulated | 50 mg/kg of body weight |  |
| N=C(N)NCCC[C@H](NP(=O)(O)OC[C@H]1O[C@@H](n2cnc3c(=O)[nH]cnc32)[C@H](O)[C@@H]1O)C(=O)O [Arg-IMP, Arginine-5'-inosine-monophosphate] | 12 |  | more active | stimulated the proliferative responses | moderate | significantly stimulated | 50 mg/kg of body weight |  |
| isoprinosine |  |  |  |  |  |  |  | less than four |
